These results are taken from patent US20070191372A1, “Dna-targeted benzotriazine 1,4-dioxides and their use in cancer therapy” (Auckland Uniservices Limited, priority 2002, published 2007).

Molecules are shown by their SMILES. pIC50: −log10 of the molar value.

One series deals with murine SCCVII. Briefly: Clonogenic assay under aerobic and hypoxic conditions, SCCVII. It is filed as cell-based. The note with it: SCVIII cells; for IC90: Mus musculus, 1 h, hypoxic, 60 min drug exposure, SN (hypoxic), read-out: C10 hypoxic; for HCR: ratio of C10 under aerobic and hypoxic conditions; for RHT: ratio of hypoxic TPZ C10 to hypoxic compound C10. As to the method: (§1) Evaluation of the Cytotoxicity of Compounds by Clonogenic Assay Under Aerobic and Hypoxic Conditions.
(§2) Compounds representative of the invention were evaluated under both aerobic and hypoxic conditions in clonogenic assays, using three cell lines: human colon carcinoma HT-29, murine SCCVII, and human lung adenocarcinoma LXFL. Clonogenic survival was determined using aerobic and hypoxic SCCVII cell suspensions. Drug exposures were performed using continuously stirred and gassed single cell suspensions (10^6 cells/mL) at 37° C., equilibrated with 5% CO2 in air or N2 for 60 min before drug addition. After a 60 min drug exposure cells were washed by centrifugation and plated to determine colony formation Cytotoxicity was measured as the concentration required to reduce plating efficiency to 10% of controls (C10). The hypoxic cytotoxicity ratio (HCR) was determined as the ratio of the C10 values under aerobic and hypoxic conditions. The relative hypoxic toxicity (RHT) was determined as the ratio of hypoxic TPZ C10 to hypoxic BTO C10. Abbreviations used in Table 2 are:
(§3) C10=The concentration of drug (in micromolar) to reduce viable cell numbers to 10% of those of control cell cultures grown under the same conditions but not exposed to drug
(§4) RHT=Relative hypoxic toxicity is defined as the ratio of concentrations of Tirapazamine/test compound to give equal cell killing under hypoxic conditions.
(§5) HCR=Hypoxic cytotoxicity ratio is defined as the ratio of drug concentrations under aerobic and hypoxic condition to produce equal cell survival (10%) determined by clonogenic assay

For series [1], the system named is human colon carcinoma HT-29. Briefly: Proliferation assay (IC50) under aerobic and hypoxic conditions, HT-29. The note with it: for RHT: HT-29, ratio Tirapazamine/test compound under hypoxic conditions; for HCR: HT-29, ratio of IC50 under aerobic and hypoxic conditions; for pIC50: Homo sapiens, HT-29, hypoxic (anoxia <0.001% O2), 4 h exposure. It is filed as cell-based. As to the method:
(§6) Evaluation of the Cytotoxicity of Compounds by Proliferation Assay (IC50) Under Aerobic and Hypoxic Conditions.
(§7) Compounds representative of the invention were evaluated under both aerobic and hypoxic conditions in a proliferation assay (IC50), using two cell lines: human colon carcinoma HT-29, and human cervical carcinoma SiHa.
(§8) Drug exposures were performed in 96-well plates (Nunc) using either a 37° C. humidified incubator (20% O2, 5% CO2) or in the incubator compartment (37° C.) of an anaerobic chamber (Shell Lab) where palladium catalyst scrubbed gas (90% N2, 5% H2, 5% CO2) ensures severe anoxia (<0.001% O2). For each experiment, compounds were simultaneously tested under both oxic and hypoxic conditions against the HT-29 cell line and included TPZ as an independent internal control at the front and back of the assay (n=2). Final data was pooled from a series of seven independent experiments and is calculated using inter-experimental means. In all cases, 8-methyl-5-nitroquinoline was used as a second internal control to confirm that strict hypoxia was present during the experiment. (Siim et al. Br. J. Cancer 1994, 70, 596-603). Cell cultures were grown in αMEM (Gibco) containing 5% heat inactivated FCS and maintained in exponential growth phase. For each individual experiment an appropriate number of cells were seeded (HT-29=1000) into wells in αMEM÷10% FCS+10 mM added glucose+100 μM 2′-deoxycytidine (2′dCyd), and allowed to attach for 3 h. High glucose (final concentration 17 mM) and the presence of 2′-dCyd minimize hypoxia-induced cell cycle arrest. Replicates were then exposed to BTOs, using 2-fold serial dilutions in triplicate, for a further 4 h. Subsequently cells were washed free of compound using complete media (without glucose/2′-dCyd) and allowed to grow for 5 (oxic) or 6 (anoxic) days. Plates were stained as described previously (Wilson et al., J. Med. Chem. 1989, 32, 31-38) and IC50 values determined.
(§9) IC50=The concentration of drug (in micromolar) to reduce viable cell numbers to 50% of those of control cell cultures grown under the same conditions but not exposed to drug
as §4
(§10) HCR=Hypoxic cytotoxicity ratio is defined as the ratio of drug concentrations under aerobic and hypoxic condition to produce equal cell survival (50%) determined by proliferation assay

The subject of series [2] is human cervical carcinoma SiHa. Briefly: Proliferation assay (IC50) under aerobic and hypoxic conditions, SiHa. Particulars: for pIC50: Homo sapiens, hypoxic, 4 h exposure; for RHT: ratio Tirapazamine/test compound under hypoxic conditions; for HCR: ratio of IC50 under aerobic and hypoxic conditions. It is filed as cell-based. As for the experimental part: as §6, §7, §8, §9, §4, §10

Series [3] deals with human colon carcinoma HT-29. Description: Clonogenic assay under aerobic and hypoxic conditions, HT-29. Particulars: HT 29 cells. It counts as cell-based. As for the experimental part: as §1, §2, §3, §4, §5
Series [4] deals with human lung adenocarcinoma LXFL. Briefly: Clonogenic assay under aerobic and hypoxic conditions, LXFL. It is filed as cell-based. Particulars: LXFL cells; for C10 hypoxic: 60 min drug exposure; for HCR: ratio of C10 under aerobic and hypoxic conditions; for RHT: ratio of hypoxic TPZ C10 to hypoxic compound C10. As for the experimental part: as §1, §2, §3, §4, §5

Turning to `CN(CCNC(=O)c1cccc2ccc(-c3ccncc3)nc12)CCNc1n[n+]([O-])c2ccccc2[n+]1[O-]` [Compound 96, N-{2-[{2-[(1,4-Dioxido-1,2,4-benzotriazin-3-yl)amino]ethyl}(methyl)amino]ethyl}-2-(4-pyridinyl)-8-quinolinecarboxamide], the melting point is 130 to 135 °C. In the series with murine SCCVII, the IC90 came to 2.3 µM, the HCR came to 65 and the RHT is recorded as 3.9. Also, in series [1], the RHT is recorded as 31, the HCR worked out at 77 and the negative-log IC50 (pIC50) is 6.72. In addition, in series [2], the pIC50 was 7.00, the RHT turned out to be 37 and the HCR is listed as 78.

`Cc1ccc2c(c1)[n+]([O-])nc(NCCCN(C)CCCNC(=O)c1cccc3ccc(-c4ccncc4)nc13)[n+]2[O-]` [Compound 75, N-[3-(Methyl{3-[(7-methyl-1,4-dioxido-1,2,4-benzotriazin-3-yl)amino]propyl}amino)propyl]-2-(4-pyridinyl)-8-quinolinecarboxamide] registered a melting point of 178 to 180 °C. In series [1], the RHT was found to be 29, the HCR was 92 and the pIC50 is 6.70. In series [2], the negative-log IC50 (pIC50) was 7.15, the RHT is 53 and the HCR amounted to 110.

For the compound `Cc1cccc2cc3cccc(C(=O)NCCNCCNc4n[n+]([O-])c5ccccc5[n+]4[O-])c3nc12` [Compound 103, N-[2-({2-[(1,4-Dioxido-1,2,4-benzotriazin-3-yl)amino]ethyl}amino)ethyl]-5-methyl-4-acridinecarboxamide], the melting point lay within 135 to 140 °C. In series [1], the RHT worked out at 357, the HCR was found to be 83 and the pIC50 was 7.46. Also, in series [2], the pIC50 was 8.00, the RHT amounted to 309 and the HCR stood at 118.

For the compound `[O-][n+]1nc(NCCCCCCNc2c3ccccc3nc3ccccc23)[n+]([O-])c2ccccc21` [Compound 11, N^1-(9-Acridinyl)-N^6-(1,4-dioxido-1,2,4-benzotriazin-3-yl)-1,6-hexanediamine], the C10 hypoxic in series [3] (hypoxic, 60 min drug exposure, concentration reducing plating efficiency to 10% of controls) is 0.12 µM; in series [4], 0.04 µM. The HCR is on record as 83.0 in series [3] (ratio of C10 under aerobic and hypoxic conditions); 20.0 in the series with murine SCCVII; 35.0 in series [4]; 38 in series [1]. Further, the RHT in series [3] (ratio of hypoxic TPZ C10 to hypoxic compound C10) came out at 416; in the series with murine SCCVII it was 16.7; in series [4], 450; in series [1] it was 370. The IC90 in the series on murine SCCVII amounted to 0.48 µM. Further, the pIC50 in series [1] was 7.80.

`Cc1cccc2nc3cccc(C(=O)NCCN(C)CCNc4n[n+]([O-])c5ccccc5[n+]4[O-])c3nc12` [Compound 98, N-{2-[{2-[(1,4-Dioxido-1,2,4-benzotriazin-3-yl)amino]ethyl}(methyl)amino]ethyl}-9-methyl-1-phenazinecarboxamide] had a melting point of 161 to 163 °C. In series [1], the RHT came out at 114, the HCR came to 45 and the pIC50 is 6.87. In addition, in series [2], the negative logarithm of the IC50 (pIC50) was 7.12, the RHT was 63 and the HCR turned out to be 30.

For `Cc1cccc2nc3c(C(=O)NCCCN(C)CCCNc4n[n+]([O-])c5ccccc5[n+]4[O-])cccc3nc12` [Compound 45, N-{3-[{3-[(1,4-Dioxido-1,2,4-benzotriazin-3-yl)amino]propyl}(methyl)amino]-propyl}-9-methyl-4-phenazinecarboxamide], the melting point lay within 138 to 142 °C. Moreover, in the series on murine SCCVII, the IC90 stood at 0.31 µM, the HCR amounted to 23.9 and the RHT worked out at 29. In addition, in series [1], the RHT came out at 321, the HCR is on record as 31 and the pIC50 is 7.74.

`O=C(NCCNCCNc1n[n+]([O-])c2ccccc2[n+]1[O-])c1cccc2ccc(-c3ccncc3)nc12` [Compound 102, N-[2-({2-[(1,4-Dioxido-1,2,4-benzotriazin-3-yl)amino]ethyl}amino)ethyl]-2-(4-pyridinyl)-8-quinolinecarboxamide] gave a melting point of 160 to 165 °C. In series [1], the RHT came to 12, the HCR is given as 54 and the pIC50 was 6.31. For the same compound, in series [2], the negative logarithm of the IC50 (pIC50) is 6.80, the RHT came to 23 and the HCR is on record as 53.

`Cc1ccc2c(c1)[n+]([O-])c(NCCCN(C)CCCNC(=O)c1cccc3ccc(-c4ccncc4)nc13)n[n+]2[O-]` [Compound 86, N-[3-(Methyl{3-[(6-methyl-1,4-dioxido-1,2,4-benzotriazin-3-yl)amino]propyl}amino)propyl]-2-(4-pyridinyl)-8-quinolinecarboxamide]: the melting point fell in the range of 178 to 180 °C. In addition, in series [1], the RHT was 66, the HCR was found to be 168 and the pIC50 was 6.65. In addition, in series [2], the negative-log IC50 (pIC50) is 6.98, the RHT is recorded as 35 and the HCR is recorded as 136.

With `Cc1cccc2cc3cccc(C(=O)NCCN(C)CCNc4n[n+]([O-])c5ccccc5[n+]4[O-])c3nc12` [Compound 99, N-{2-[{2-[(1,4-Dioxido-1,2,4-benzotriazin-3-yl)amino]ethyl}(methyl)amino]ethyl}-5-methyl-4-acridinecarboxamide], the melting point fell in the range of 148 to 152 °C. Besides, in the series on murine SCCVII, the IC90 worked out at 0.29 µM, the HCR is 176 and the RHT was 17.2. Further, in series [1], the RHT amounted to 14, the HCR stood at 25 and the pIC50 is 6.39.

For `CN(CCCNC(=O)c1cccc2cc3ccccc3nc12)CCCNc1n[n+]([O-])c2ccccc2[n+]1[O-]` [Compound 41, N-{3-[{3-[(1,4-Dioxido-1,2,4-benzotriazin-3-yl)amino]propyl}(methyl)amino]propyl}-4-acridinecarboxamide], in the series with murine SCCVII, the IC90 turned out to be 0.8 µM, the HCR stood at 52.5 and the RHT is 12.5. In series [4], the C10 hypoxic amounted to 0.4 µM, the HCR came out at 50 and the RHT is given as 37.5. For the same compound, in series [1], the RHT was 134, the HCR was determined as 154 and the pIC50 is 7.37.
